Measurements as given in US20110190235A1, “BORON-CONTAINING SMALL MOLECULES AS ANTIPROTOZOAL AGENTS” (Anacor Pharmaceuticals, Inc., priority 2009, published 2011).
In brackets after ≈: the same amount, converted by molar mass. Read-outs that look alike come from different tables or passages of the source.

What was measured:
[1] = test system: bloodstream-form trypanosome T. brucei brucei 427 strain; assay: Trypanosoma brucei brucei high-throughput in vitro drug sensitivity assay (resazurin); type: cell-based; details: for IC50: Trypanosoma brucei, 72 hrs incubation; for Selectivity Index (L929 IC50 / T. b. brucei IC50): T. b. brucei vs L929
[2] = L929 cytotoxicity evaluation (resazurin); type: cell-based; details: mouse, L929 mouse fibroblast cells; 72 hrs incubation; read-out: Cytotox L-929 IC50
Procedure: For evaluation of compound effects on mammalian cells, L929 mouse fibroblast cells were used. Cells were maintained as adherent cultures in T-25 vented cap flasks in a humidified incubator at 37° C. in the presence of 5% CO2. Culture media was D-MEM supplemented with 10% fetal bovine serum and 1% penicillin/streptomycin. L929 cells were maintained below confluent levels by sub-culturing at 1:10 dilution twice weekly using 0.05% trypsin for detachment.
Sub-confluent L929 cells were trypsinized, resuspended in fresh media and 10 uL was counted using hemocytometer to determine cell concentration. Cells were diluted to 1×10^4/mL in DMEM, dispensed (100 uL) into 96-well plates using a Multidrop 384 dispenser and allowed to attach overnight. Spent media was replaced with 99.5 uL fresh D-MEM and compounds to be tested were serially diluted in DMSO and 0.5 uL added using a Biomek NX liquid handler. Plates were incubated with compounds for 72 hrs at 37° C. with 5% CO2. Resazurin (20 uL of 12.5 mg/ml stock) from Sigma-Aldrich was added to each well and plates were incubated for an additional 3-4 hrs. Assay plates were read using an EnVision plate reader at an excitation wavelength of 544 nm and emission of 590 nm. Single data points were used to generate sigmoidal dose response curves and determine IC50 values using XLfit curve fitting software from IDBS (Guildford, UK).

Work on `CC1(C)OB(O)c2cc(NC(=O)c3cc(C(F)(F)F)cc(C(F)(F)F)c3)ccc21` [compound 80, N-(1-Hydroxy-3,3-dimethyl-1,3-dihydro-benzo[c][1,2]oxaborol-6-yl)-3,5-bis-trifluoromethyl-benzamide] yielded an IC50 ([1]; read-out: T.b. brucei IC50) greater than 5 µg/mL and an IC50 at 72 h [2] greater than 10 µg/mL.

Compound `COc1ccccc1C(=O)Nc1ccc2c(c1)B(O)OC2(C)C` [compound 46, N-(1-Hydroxy-3,3-dimethyl-1,3-dihydro-benzo[c][1,2]oxaborol-6-yl)-2-methoxy-benzamide] has an IC50 ([1]; read-out: T.b. brucei IC50) of 3.01 µg/mL and an IC50 at 72 h [2] greater than 10 µg/mL.

With `CC1(C)OB(O)c2cc(NC(=O)c3c(Cl)cccc3Cl)ccc21` [compound 68, 2,6-Dichloro-N-(1-hydroxy-3,3-dimethyl-1,3-dihydro-benzo[c][1,2]oxaborol-6-yl)-benzamide] the IC50 ([1]; read-out: T.b. brucei IC50) was 2.23 µg/mL and the IC50 at 72 h [2] was greater than 10 µg/mL.

`O=C(Nc1ccc2c(c1)B(O)OC2C1CCCC1)c1ccc(F)cc1` (stereo not shown) [compound 20, N-(3-Cyclopentyl-1-hydroxy-1,3-dihydro-benzo[c][1,2]oxaborol-6-yl)-4-fluoro-benzamide] gave an IC50 ([1]; read-out: T. b. brucei IC50) greater than 14500 nM, an IC50 ([1]; read-out: T.b. brucei IC50) greater than 5 µg/mL and an IC50 at 72 h [2] greater than 10 µg/mL.

With `CC1OB(O)c2cc(NC(=O)c3ccccc3I)ccc21` (stereo not shown) [compound 15, N-(1-Hydroxy-3-methyl-1,3-dihydro-benzo[c][1,2]oxaborol-6-yl)-2-iodo-benzamide] the “Selectivity Index (L929 IC50 / T. b. brucei IC50)” value [1] was 36, the IC50 ([1]; read-out: T. b. brucei IC50) was 173 nM and the IC50 ([1]; read-out: T.b. brucei IC50) was 0.068 µg/mL. The IC50 at 72 h [2] was 2.45 µg/mL (≈ 6.23 µM).

With `C=C(C)c1ccc(C(=O)Nc2ccc3c(c2)B(O)OC3(C)C)c(Cl)c1` [compound 100, 2-Chloro-N-(1-hydroxy-3,3-dimethyl-1,3-dihydro-benzo[c][1,2]oxaborol-6-yl)-4-isopropenyl-benzamide] the IC50 ([1]; read-out: T.b. brucei IC50) was 0.077 µg/mL and the IC50 at 72 h [2] was 9.55 µg/mL (≈ 26.9 µM).

`CC1(C)OB(O)c2cc(NC(=O)c3ccc4ccccc4n3)ccc21` [compound 117, Quinoline-2-carboxylic acid (1-hydroxy-3,3-dimethyl-1,3-dihydro-benzo[c][1,2]oxaborol-6-yl)-amide] showed an IC50 ([1]; read-out: T.b. brucei IC50) of 1.55 µg/mL and an IC50 at 72 h [2] greater than 10 µg/mL.

With `CC1(C)OB(O)c2cc(NC(=O)c3cccc(OC(F)(F)F)c3)ccc21` [compound 52, N-(1-Hydroxy-3,3-dimethyl-1,3-dihydro-benzo[c][1,2]oxaborol-6-yl)-3-trifluoromethoxy-benzamide] the IC50 ([1]; read-out: T.b. brucei IC50) was 2.27 µg/mL and the IC50 at 72 h [2] was greater than 10 µg/mL.

Work on `CC1(C)OB(O)c2cc(NC(=O)C3CCCCC3)ccc21` [compound 129, Cyclohexanecarboxylic acid (1-hydroxy-3,3-dimethyl-1,3-dihydro-benzo[c][1,2]oxaborol-6-yl)-amide] yielded an IC50 ([1]; read-out: T.b. brucei IC50) greater than 5 µg/mL and an IC50 at 72 h [2] greater than 10 µg/mL.

For `CC1(C)OB(O)c2cc(NC(=O)c3ccc(F)cc3Br)ccc21` [compound 74, 2-Bromo-4-fluoro-N-(1-hydroxy-3,3-dimethyl-1,3-dihydro-benzo[c][1,2]oxaborol-6-yl)-benzamide], the “Selectivity Index (L929 IC50 / T. b. brucei IC50)” value [1] was greater than 18, the IC50 ([1]; read-out: T. b. brucei IC50) was 1490 nM and the IC50 ([1]; read-out: T.b. brucei IC50) was 0.564 µg/mL. The IC50 at 72 h [2] was greater than 10 µg/mL.

`CC1(C)OB(O)c2cc(NC(=O)c3cccnc3)ccc21` [compound 115, N-(1-Hydroxy-3,3-dimethyl-1,3-dihydro-benzo[c][1,2]oxaborol-6-yl)-nicotinamide] gave an IC50 ([1]; read-out: T.b. brucei IC50) greater than 5 µg/mL and an IC50 at 72 h [2] greater than 10 µg/mL.

In the case of `Cc1ccccc1C(=O)Nc1ccc2c(c1)B(O)OC2(C)C` [compound 27, N-(1-Hydroxy-3,3-dimethyl-1,3-dihydro-benzo[c][1,2]oxaborol-6-yl)-2-methylbenzamide], the IC50 ([1]; read-out: T.b. brucei IC50) is reported as 2.24 µg/mL and the IC50 at 72 h [2] is reported as greater than 10 µg/mL.

`CC1(C)OB(O)c2cc(NC(=O)c3c(F)cccc3Cl)ccc21` [compound 73, 2-Chloro-6-fluoro-N-(1-hydroxy-3,3-dimethyl-1,3-dihydro-benzo[c][1,2]oxaborol-6-yl)-benzamide] gave an IC50 ([1]; read-out: T.b. brucei IC50) of 2.44 µg/mL and an IC50 at 72 h [2] greater than 10 µg/mL.

For `CC1(C)OB(O)c2cc(NC(=O)c3cc[nH]n3)ccc21` [compound 123, 1H-Pyrazole-3-carboxylic acid (1-hydroxy-3,3-dimethyl-1,3-dihydro-benzo[c][1,2]oxaborol-6-yl)-amide], the IC50 ([1]; read-out: T.b. brucei IC50) was greater than 5 µg/mL and the IC50 at 72 h [2] was greater than 10 µg/mL.

Work on `CC1(C)OB(O)c2cc(NC(=O)c3ccc(OC(F)(F)F)cc3)ccc21` [compound 53, N-(1-Hydroxy-3,3-dimethyl-1,3-dihydro-benzo[c][1,2]oxaborol-6-yl)-4-trifluoromethoxy-benzamide] yielded an IC50 ([1]; read-out: T.b. brucei IC50) of 0.407 µg/mL and an IC50 at 72 h [2] greater than 10 µg/mL.

For `CC1(C)OB(O)c2cc(NC(=O)c3cccc(Cl)c3F)ccc21` [compound 70, 3-Chloro-2-fluoro-N-(1-hydroxy-3,3-dimethyl-1,3-dihydro-benzo[c][1,2]oxaborol-6-yl)-benzamide], the IC50 ([1]; read-out: T.b. brucei IC50) was 0.377 µg/mL and the IC50 at 72 h [2] was greater than 10 µg/mL.

`Cc1ccc(C(=O)Nc2ccc3c(c2)B(O)OC3(C)C)c(C)c1` [compound 78, N-(1-Hydroxy-3,3-dimethyl-1,3-dihydro-benzo[c][1,2]oxaborol-6-yl)-2,4-dimethyl-benzamide] showed an IC50 ([1]; read-out: T.b. brucei IC50) of 1.1 µg/mL and an IC50 at 72 h [2] greater than 10 µg/mL.

`CC1(C)OB(O)c2cc(NC(=O)c3cccc(Br)c3)ccc21` [compound 43, 3-Bromo-N-(1-hydroxy-3,3-dimethyl-1,3-dihydro-benzo[c][1,2]oxaborol-6-yl)-benzamide] gave an IC50 ([1]; read-out: T.b. brucei IC50) of 2.2 µg/mL and an IC50 at 72 h [2] greater than 10 µg/mL.

`CC1(C)OB(O)c2cc(NC(=O)c3ccc(-c4ccccc4)cc3)ccc21` [compound 62, Biphenyl-4-carboxylic acid (1-hydroxy-3,3-dimethyl-1,3-dihydro-benzo[c][1,2]oxaborol-6-yl)-amide] showed an IC50 ([1]; read-out: T.b. brucei IC50) of 0.365 µg/mL and an IC50 at 72 h [2] greater than 10 µg/mL.

For `CCCc1ccc(C(=O)Nc2ccc3c(c2)B(O)OC3(C)C)cc1` [compound 31, N-(1-Hydroxy-3,3-dimethyl-1,3-dihydro-benzo[c][1,2]oxaborol-6-yl)-4-propyl-benzamide], the IC50 ([1]; read-out: T.b. brucei IC50) was 0.397 µg/mL and the IC50 at 72 h [2] was greater than 10 µg/mL.

In the case of `CC1OB(O)c2cc(NC(=O)c3cccc(Cl)c3)ccc21` (stereo not shown) [compound 11, 3-Chloro-N-(1-hydroxy-3-methyl-1,3-dihydro-benzo[c][1,2]oxaborol-6-yl)-benzamide], the “Selectivity Index (L929 IC50 / T. b. brucei IC50)” value [1] is reported as 168, the IC50 ([1]; read-out: T. b. brucei IC50) is reported as 119 nM and the IC50 ([1]; read-out: T.b. brucei IC50) is reported as 0.036 µg/mL. For the same compound, the IC50 at 72 h [2] was 6.06 µg/mL (≈ 20.1 µM).

In the case of `CC1(C)OB(O)c2cc(NC(=O)c3ccc(C#N)cc3)ccc21` [compound 57, 4-Cyano-N-(1-hydroxy-3,3-dimethyl-1,3-dihydro-benzo[c][1,2]oxaborol-6-yl)-benzamide], the IC50 ([1]; read-out: T.b. brucei IC50) is reported as greater than 5 µg/mL and the IC50 at 72 h [2] is reported as greater than 10 µg/mL.

Compound `CC1(C)OB(O)c2cc(NC(=O)c3ccccc3F)ccc21` [compound 37, 2-Fluoro-N-(1-hydroxy-3,3-dimethyl-1,3-dihydro-benzo[c][1,2]oxaborol-6-yl)-benzamide] has an IC50 ([1]; read-out: T.b. brucei IC50) of 1.42 µg/mL and an IC50 at 72 h [2] greater than 10 µg/mL.

For `CC1(C)OB(O)c2cc(NC(=O)c3ccccc3I)ccc21` [compound 40, N-(1-Hydroxy-3,3-dimethyl-1,3-dihydro-benzo[c][1,2]oxaborol-6-yl)-2-iodo-benzamide], the IC50 ([1]; read-out: T.b. brucei IC50) was 0.599 µg/mL and the IC50 at 72 h [2] was greater than 10 µg/mL.

`CC1(C)OB(O)c2cc(NC(=O)c3c(F)cccc3C(F)(F)F)ccc21` [compound 86, 2-Fluoro-N-(1-hydroxy-3,3-dimethyl-1,3-dihydro-benzo[c][1,2]oxaborol-6-yl)-6-trifluoromethyl-benzamide] showed an IC50 ([1]; read-out: T.b. brucei IC50) of 0.425 µg/mL and an IC50 at 72 h [2] greater than 10 µg/mL.

In the case of `CC1(C)OB(O)c2cc(NC(=O)c3cccc4cccnc34)ccc21` [compound 113, Quinoline-8-carboxylic acid (1-hydroxy-3,3-dimethyl-1,3-dihydro-benzo[c][1,2]oxaborol-6-yl)-amide], the IC50 ([1]; read-out: T.b. brucei IC50) is reported as greater than 5 µg/mL and the IC50 at 72 h [2] is reported as greater than 10 µg/mL.

Work on `CCCc1ccc(C(=O)Nc2ccc3c(c2)B(O)OC3(C)C)c(Cl)c1` [compound 102, 2-Chloro-N-(1-hydroxy-3,3-dimethyl-1,3-dihydro-benzo[c][1,2]oxaborol-6-yl)-4-propyl-benzamide] yielded an IC50 ([1]; read-out: T.b. brucei IC50) of 0.125 µg/mL and an IC50 at 72 h [2] greater than 10 µg/mL.

For `CC1(C)OB(O)c2cc(NC(=O)c3c(F)c(F)c(F)c(F)c3F)ccc21` [compound 110, 2,3,4,5,6-Pentafluoro-N-(1-hydroxy-3,3-dimethyl-1,3-dihydro-benzo[c][1,2]oxaborol-6-yl)-benzamide], the IC50 ([1]; read-out: T.b. brucei IC50) was greater than 5 µg/mL and the IC50 at 72 h [2] was greater than 10 µg/mL.

In the case of `Cc1ccc(C(=O)Nc2ccc3c(c2)B(O)OC3(C)C)c(Cl)n1` [compound 118], the IC50 ([1]; read-out: T.b. brucei IC50) is reported as 0.814 µg/mL and the IC50 at 72 h [2] is reported as greater than 10 µg/mL.

`CC1(C)OB(O)c2cc(NC(=O)c3cc(C(F)(F)F)ccc3Cl)ccc21` [compound 90, 2-Chloro-N-(1-hydroxy-3,3-dimethyl-1,3-dihydro-benzo[c][1,2]oxaborol-6-yl)-5-trifluoromethyl-benzamide] gave an IC50 ([1]; read-out: T.b. brucei IC50) of 0.514 µg/mL and an IC50 at 72 h [2] greater than 10 µg/mL.

For `CC1(C)OB(O)c2cc(NC(=O)c3ccc(F)cc3F)ccc21` [compound 63, 2,4-Difluoro-N-(1-hydroxy-3,3-dimethyl-1,3-dihydro-benzo[c][1,2]oxaborol-6-yl)-benzamide], the “Selectivity Index (L929 IC50 / T. b. brucei IC50)” value [1] was greater than 4, the IC50 ([1]; read-out: T. b. brucei IC50) was 8390 nM and the IC50 ([1]; read-out: T.b. brucei IC50) was 2.66 µg/mL. For the same compound, the IC50 at 72 h [2] was greater than 10 µg/mL.

Compound `CC1(C)OB(O)c2cc(NC(=O)c3c(Cl)cc(Cl)cc3Cl)ccc21` [compound 105, 2,4,6-Trichloro-N-(1-hydroxy-3,3-dimethyl-1,3-dihydro-benzo[c][1,2]oxaborol-6-yl)-benzamide] has an IC50 ([1]; read-out: T.b. brucei IC50) of 0.788 µg/mL and an IC50 at 72 h [2] greater than 10 µg/mL.
